Measured values taken from PubChem BioAssay AID2060885 (Molecular Pharmacology Branch, DTP, NCI, 2025).
pIC50: −log10 of the molar value.

System: NCI-H23 complex spheroids with HUVEC/MSC, viability
Assay: Anticancer human tumor NCI-H23 cell line growth inhibition [RAS];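 note: spheroids exposed to compound for 7 days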;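 for viability, T/C: 100% = DMSO vehicle control viability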
Conditions: for pIC50: curve of first compound; for viability, T/C: stronger effect = lower value
How it was run: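 Multi-cell-type spheroids: tumor cells plus HUVEC endothelial cells and mesenchymal stem cells. RAS-pathway inhibitors were combined with targeted agents, each dosed in half-log steps down from clinical Cmax, or from 10 microM when Cmax was unknown.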

[1] = second compound 0.000949 µM, first compound 0.0316 µM
[2] = second compound 0.000949 µM, first compound 0.1 µM
[3] = second compound 0.000949 µM, first compound 0.316 µM
[4] = second compound 0.000949 µM, first compound 1 µM
[5] = second compound 0.000949 µM, first compound 3.16 µM
[6] = second compound 0.000949 µM, first compound 10 µM
[7] = second compound 0.003 µM, first compound 0.0316 µM
[8] = second compound 0.003 µM, first compound 0.1 µM
[9] = second compound 0.003 µM, first compound 0.316 µM
[10] = second compound 0.003 µM, first compound 1 µM
[11] = second compound 0.003 µM, first compound 3.16 µM
[12] = second compound 0.003 µM, first compound 10 µM
[13] = second compound 0.00949 µM, first compound 0.0316 µM
[14] = second compound 0.00949 µM, first compound 0.1 µM
[15] = second compound 0.00949 µM, first compound 0.316 µM
[16] = second compound 0.00949 µM, first compound 1 µM
[17] = second compound 0.00949 µM, first compound 3.16 µM
[18] = second compound 0.00949 µM, first compound 10 µM
[19] = second compound 0.03 µM, first compound 0.0316 µM
[20] = second compound 0.03 µM, first compound 0.1 µM
[21] = second compound 0.03 µM, first compound 0.316 µM
[22] = second compound 0.03 µM, first compound 1 µM
[23] = second compound 0.03 µM, first compound 3.16 µM
[24] = second compound 0.03 µM, first compound 10 µM
[25] = second compound 0.0949 µM, first compound 0.0316 µM
[26] = second compound 0.0949 µM, first compound 0.1 µM
[27] = second compound 0.0949 µM, first compound 0.316 µM
[28] = second compound 0.0949 µM, first compound 1 µM
[29] = second compound 0.0949 µM, first compound 3.16 µM
[30] = second compound 0.0949 µM, first compound 10 µM
[31] = second compound 0.3 µM, first compound 0.0316 µM
[32] = second compound 0.3 µM, first compound 0.1 µM
[33] = second compound 0.3 µM, first compound 0.316 µM
[34] = second compound 0.3 µM, first compound 1 µM
[35] = second compound 0.3 µM, first compound 3.16 µM
[36] = second compound 0.3 µM, first compound 10 µM

CC(C)NCC(C(=O)N1CCN(c2ncnc3c2C(C)CC3O)CC1)c1ccc(Cl)cc1 (centres undefined) + CCn1c(-c2cc(N3CCN(C)CC3)cnc2C(C)OC)c2c3cc(ccc31)-c1csc(n1)CC(NC(=O)C1CC1C)C(=O)N1CCCC(N1)C(=O)OCC(C)(C)C2
pIC50 (second compound 0.000949 µM): > 7.50
pIC50 (second compound 0.003 µM): > 7.50
pIC50 (second compound 0.00949 µM): > 7.50
pIC50 (second compound 0.03 µM): > 7.50
pIC50 (second compound 0.0949 µM): > 7.50
pIC50 (second compound 0.3 µM): > 7.50
viability, T/C [1]: 44%
viability, T/C [2]: 47.4%
viability, T/C [3]: 32.9%
viability, T/C [4]: 34.7%
viability, T/C [5]: 26.2%
viability, T/C [6]: 15.2%
viability, T/C [7]: 37.9%
viability, T/C [8]: 27.3%
viability, T/C [9]: 24.2%
viability, T/C [10]: 22.6%
viability, T/C [11]: 22%
viability, T/C [12]: 13.8%
viability, T/C [13]: 30.8%
viability, T/C [14]: 31.7%
viability, T/C [15]: 30.4%
viability, T/C [16]: 22.2%
viability, T/C [17]: 17.1%
viability, T/C [18]: 10.4%
viability, T/C [19]: 29.5%
viability, T/C [20]: 23.8%
viability, T/C [21]: 21.5%
viability, T/C [22]: 19.6%
viability, T/C [23]: 12.1%
viability, T/C [24]: 12.1%
viability, T/C [25]: 18.6%
viability, T/C [26]: 18.6%
viability, T/C [27]: 17.8%
viability, T/C [28]: 17.4%
viability, T/C [29]: 10.3%
viability, T/C [30]: 9.96%
viability, T/C [31]: 18.1%
viability, T/C [32]: 15.7%
viability, T/C [33]: 14.9%
viability, T/C [34]: 10.6%
viability, T/C [35]: 9.62%
viability, T/C [36]: 9.02%

CC(=O)OC12COC1CC(O)C1(C)C(=O)C(O)C3=C(C)C(OC(=O)C(O)C(NC(=O)OC(C)(C)C)c4ccccc4)CC(O)(C(OC(=O)c4ccccc4)C21)C3(C)C (centres undefined) + CCn1c(-c2cc(N3CCN(C)CC3)cnc2C(C)OC)c2c3cc(ccc31)-c1csc(n1)CC(NC(=O)C1CC1C)C(=O)N1CCCC(N1)C(=O)OCC(C)(C)C2
pIC50 (second compound 0.000949 µM): > 7.50
pIC50 (second compound 0.003 µM): > 7.50
pIC50 (second compound 0.00949 µM): > 7.50
pIC50 (second compound 0.03 µM): > 7.50
pIC50 (second compound 0.0949 µM): > 7.50
pIC50 (second compound 0.3 µM): > 7.50
viability, T/C [1]: 13.9%
viability, T/C [2]: 16.1%
viability, T/C [3]: 14.7%
viability, T/C [4]: 15.5%
viability, T/C [5]: 21.5%
viability, T/C [6]: 25.5%
viability, T/C [7]: 11.9%
viability, T/C [8]: 12.4%
viability, T/C [9]: 11.6%
viability, T/C [10]: 12.1%
viability, T/C [11]: 17.1%
viability, T/C [12]: 19.4%
viability, T/C [13]: 12.5%
viability, T/C [14]: 10.9%
viability, T/C [15]: 11.6%
viability, T/C [16]: 13.9%
viability, T/C [17]: 15.8%
viability, T/C [18]: 17.3%
viability, T/C [19]: 11.4%
viability, T/C [20]: 11.7%
viability, T/C [21]: 12%
viability, T/C [22]: 12.5%
viability, T/C [23]: 16.4%
viability, T/C [24]: 19.9%
viability, T/C [25]: 10.7%
viability, T/C [26]: 10.6%
viability, T/C [27]: 10.4%
viability, T/C [28]: 10.9%
viability, T/C [29]: 12.4%
viability, T/C [30]: 14.9%
viability, T/C [31]: 10.1%
viability, T/C [32]: 8.97%
viability, T/C [33]: 10.4%
viability, T/C [34]: 8.98%
viability, T/C [35]: 12.6%
viability, T/C [36]: 14.2%
